Experimental data reported in ChEMBL document CHEMBL1201862, “PubChem BioAssay data set” (2004).
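Results reflect a 48-hour exposure of cells in 96-well plates to compound at five concentrations. Here, GI50 denotes the concentration required for 50% inhibition of growth.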 Calls of active or inactive are those of the source. Cut-off read from the data, not from the text of the source: active = GI50 up to about 1.1 µM and inactive = higher.

Legend:
Assay in all cases: NCI anticancer screen, dose series, 48 h
CAKI-1 = system: CAKI-1
CCRF-CEM = system: CCRF-CEM
DU-145 = system: DU-145
HCT-116 = system: HCT-116
HCT-15 = system: HCT-15
HOP-92 = system: HOP-92
K562 = system: K562
KM12 = system: KM12
M14 = system: M14
MOLT-4 = system: MOLT-4
Malme-3M = system: Malme-3M
NCI-H226 = system: NCI-H226
NCI-H23 = system: NCI-H23
NCI-H522 = system: NCI-H522
OVCAR-4 = system: OVCAR-4
OVCAR-8 = system: OVCAR-8
SF-268 = system: SF-268
SK-MEL-5 = system: SK-MEL-5
A498 = system: A498
NCI-H460 = system: NCI-H460

| Structure (SMILES) | GI50 (CAKI-1) | GI50 (CCRF-CEM) | GI50 (DU-145) | GI50 (HCT-116) | GI50 (HCT-15) [µM] | GI50 (HOP-92) | GI50 (K562) | GI50 (KM12) | GI50 (M14) | GI50 (MOLT-4) | GI50 (Malme-3M) | GI50 (NCI-H226) | GI50 (NCI-H23) | GI50 (NCI-H522) | GI50 (OVCAR-4) | GI50 (OVCAR-8) | GI50 (SF-268) | GI50 (SK-MEL-5) | GI50 (A498) | GI50 (NCI-H460) |
| --- | --- | --- | --- | --- | --- | --- | --- | --- | --- | --- | --- | --- | --- | --- | --- | --- | --- | --- | --- | --- |
| CCOC(=O)C(NC(=O)c1ccccc1)(N1CCOCC1)C(F)(F)F (configuration not stated) | > 100 µM (inactive) | > 100 µM (inactive) | > 100 µM (inactive) | > 100 µM (inactive) | > 100 | > 100 µM (inactive) | > 100 µM (inactive) | > 100 µM (inactive) | > 100 µM (inactive) | > 100 µM (inactive) | > 100 µM (inactive) | > 100 µM (inactive) | > 100 µM (inactive) | > 100 µM (inactive) | > 100 µM (inactive) | > 100 µM (inactive) | > 100 µM (inactive) | > 100 µM (inactive) | – | – |
| Cc1cc(C)nc(NC(=S)Nc2cccc(Cl)c2)c1 | 20.3 µM (inactive) | > 20 µM (inactive) | > 100 µM (inactive) | > 100 µM (inactive) | > 100 | – | > 100 µM (inactive) | > 100 µM (inactive) | > 100 µM (inactive) | > 100 µM (inactive) | > 100 µM (inactive) | > 100 µM (inactive) | > 100 µM (inactive) | – | > 36.6 µM (inactive) | > 100 µM (inactive) | > 100 µM (inactive) | > 10 µM (inactive) | > 47.3 µM (inactive) | > 45.8 µM (inactive) |
| COc1ccc(S(=O)(=O)O)cc1-n1nc(C(=O)Nc2ccccc2)n[n+]1-c1cc(S(=O)(=O)[O-])ccc1OC | > 100 µM (inactive) | > 100 µM (inactive) | > 100 µM (inactive) | > 100 µM (inactive) | > 100 | – | > 100 µM (inactive) | > 100 µM (inactive) | > 100 µM (inactive) | > 100 µM (inactive) | > 100 µM (inactive) | > 100 µM (inactive) | > 100 µM (inactive) | > 100 µM (inactive) | > 100 µM (inactive) | – | > 100 µM (inactive) | > 100 µM (inactive) | > 100 µM (inactive) | > 100 µM (inactive) |
| CCOC(=O)c1c(SCC#N)n(-c2ccccc2)c(=S)n(-c2ccccc2)c1=O | > 100 µM (inactive) | 13.5 µM (inactive) | > 100 µM (inactive) | 43.9 µM (inactive) | 25.8 | 43.9 µM (inactive) | 18.2 µM (inactive) | 47 µM (inactive) | > 100 µM (inactive) | 9.73 µM (inactive) | 39.2 µM (inactive) | 38.4 µM (inactive) | 45.7 µM (inactive) | 34.4 µM (inactive) | 40.7 µM (inactive) | 38.5 µM (inactive) | 55.8 µM (inactive) | 27 µM (inactive) | – | 34.2 µM (inactive) |
| Cc1ccc(O)c(C(c2cccc(C(c3cc(C)ccc3O)c3cc(C)ccc3O)c2)c2cc(C)ccc2O)c1 | 1.52 µM (inactive) | 2.38 µM (inactive) | 1.44 µM (inactive) | 1.89 µM (inactive) | 1.87 | – | 1.81 µM (inactive) | 1.65 µM (inactive) | 1.88 µM (inactive) | 2.6 µM (inactive) | 1.87 µM (inactive) | 1.77 µM (inactive) | 1.75 µM (inactive) | 1.64 µM (inactive) | 2.22 µM (inactive) | 2 µM (inactive) | 1.6 µM (inactive) | 2.44 µM (inactive) | 1.53 µM (inactive) | – |
| O=C(NN=C1NCCCN1)c1ccco1 | – | > 100 µM (inactive) | > 100 µM (inactive) | > 100 µM (inactive) | > 100 | > 100 µM (inactive) | > 100 µM (inactive) | > 100 µM (inactive) | > 100 µM (inactive) | > 100 µM (inactive) | > 100 µM (inactive) | > 100 µM (inactive) | > 100 µM (inactive) | > 100 µM (inactive) | > 100 µM (inactive) | > 100 µM (inactive) | > 100 µM (inactive) | > 100 µM (inactive) | – | > 100 µM (inactive) |
| CC1=NC2(CCCCC2)N(Cl)C(=O)C1SC#N (configuration not stated) | – | 2.58 µM (inactive) | 25.2 µM (inactive) | – | 23.8 | – | 9.46 µM (inactive) | 21.4 µM (inactive) | 16.2 µM (inactive) | 4.97 µM (inactive) | 18.2 µM (inactive) | 24 µM (inactive) | 25.1 µM (inactive) | 16.7 µM (inactive) | 20.8 µM (inactive) | 17.9 µM (inactive) | 18 µM (inactive) | 18.2 µM (inactive) | > 100 µM (inactive) | > 10 µM (inactive) |
| Cc1nc2ccc(S(=O)(=O)Nc3ccc(Cl)cc3)cc2c(=O)n1NC(=O)CNc1ccc(Cl)cc1 | > 100 µM (inactive) | > 100 µM (inactive) | > 100 µM (inactive) | > 100 µM (inactive) | > 100 | > 100 µM (inactive) | > 100 µM (inactive) | 64 µM (inactive) | > 100 µM (inactive) | > 100 µM (inactive) | > 100 µM (inactive) | > 100 µM (inactive) | > 100 µM (inactive) | > 100 µM (inactive) | > 100 µM (inactive) | > 100 µM (inactive) | > 100 µM (inactive) | – | – | > 100 µM (inactive) |
| CC(=O)/N=C1\NC(=O)/C(=C/c2ccccc2Cl)N1C | > 100 µM (inactive) | > 100 µM (inactive) | > 100 µM (inactive) | > 100 µM (inactive) | 65.9 | > 100 µM (inactive) | – | > 100 µM (inactive) | > 100 µM (inactive) | > 100 µM (inactive) | – | > 100 µM (inactive) | > 100 µM (inactive) | > 100 µM (inactive) | > 100 µM (inactive) | > 100 µM (inactive) | > 100 µM (inactive) | > 100 µM (inactive) | – | > 100 µM (inactive) |
| CC(=O)OC[C@@H](OC(C)=O)[C@H](OC(C)=O)[C@@H]1OC(C)(C)O[C@@H]1C1SCCCS1 | > 100 µM (inactive) | > 100 µM (inactive) | > 100 µM (inactive) | > 100 µM (inactive) | – | – | > 100 µM (inactive) | > 100 µM (inactive) | > 100 µM (inactive) | > 100 µM (inactive) | > 100 µM (inactive) | – | > 100 µM (inactive) | > 100 µM (inactive) | > 100 µM (inactive) | > 100 µM (inactive) | > 100 µM (inactive) | > 100 µM (inactive) | > 100 µM (inactive) | > 100 µM (inactive) |
| CCOC(=O)c1cc(C2CCN(CC(C)CC)C2=S)c(C(=O)/C=C(/C)N)[nH]1 (configuration not stated) | > 50 µM (inactive) | > 50 µM (inactive) | > 50 µM (inactive) | > 50 µM (inactive) | > 50 | – | > 50 µM (inactive) | > 50 µM (inactive) | > 50 µM (inactive) | > 50 µM (inactive) | > 50 µM (inactive) | > 50 µM (inactive) | > 50 µM (inactive) | – | – | > 50 µM (inactive) | > 50 µM (inactive) | > 50 µM (inactive) | > 50 µM (inactive) | > 50 µM (inactive) |
| CCOC(=O)/C=C1/Nc2cc(F)c(F)cc2NC1=O | > 100 µM (inactive) | > 100 µM (inactive) | > 100 µM (inactive) | > 100 µM (inactive) | > 100 | > 100 µM (inactive) | > 100 µM (inactive) | > 100 µM (inactive) | > 100 µM (inactive) | > 100 µM (inactive) | > 100 µM (inactive) | > 100 µM (inactive) | > 100 µM (inactive) | – | > 100 µM (inactive) | > 100 µM (inactive) | > 100 µM (inactive) | > 100 µM (inactive) | – | > 100 µM (inactive) |
| Cc1nn(C(=O)Cc2ccccc2)c2c1C(c1ccc(O)cc1)SC(=N)N2 (configuration not stated) | > 100 µM (inactive) | > 100 µM (inactive) | > 100 µM (inactive) | > 100 µM (inactive) | > 100 | – | > 100 µM (inactive) | > 100 µM (inactive) | > 100 µM (inactive) | > 100 µM (inactive) | > 100 µM (inactive) | > 100 µM (inactive) | > 100 µM (inactive) | > 100 µM (inactive) | – | > 100 µM (inactive) | > 100 µM (inactive) | > 100 µM (inactive) | > 100 µM (inactive) | > 100 µM (inactive) |
| COC(=O)[C@@]12CC3CN(Cc4c1[nH]c1ccccc41)C2CC3=O | > 100 µM (inactive) | > 100 µM (inactive) | > 100 µM (inactive) | > 100 µM (inactive) | > 100 | 26.7 µM (inactive) | > 100 µM (inactive) | > 100 µM (inactive) | > 100 µM (inactive) | > 100 µM (inactive) | > 100 µM (inactive) | > 100 µM (inactive) | > 100 µM (inactive) | > 100 µM (inactive) | > 100 µM (inactive) | > 100 µM (inactive) | > 100 µM (inactive) | – | – | > 100 µM (inactive) |
| Cc1cc(S(=O)(=O)Nc2nc(N)n(-c3ccccn3)n2)c(S)cc1Cl | > 100 µM (inactive) | > 100 µM (inactive) | > 100 µM (inactive) | > 100 µM (inactive) | > 100 | – | > 100 µM (inactive) | > 100 µM (inactive) | > 100 µM (inactive) | > 100 µM (inactive) | > 100 µM (inactive) | > 100 µM (inactive) | – | > 100 µM (inactive) | > 100 µM (inactive) | > 100 µM (inactive) | > 100 µM (inactive) | > 100 µM (inactive) | > 100 µM (inactive) | > 100 µM (inactive) |
